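Grown in 96-well plates, cells were treated for 48 hours with each compound at five concentrations. Insufficient inhibition: endpoint recorded as highest concentration tested. GI50 = concentration required for 50% inhibition of growth.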 The source made the active and inactive calls. Rule as the data show it: active = GI50 up to about 1.1 µM and inactive = higher.
Experiments:
Assay in all cases: NCI anticancer screen, dose series, 48 h
KM-20L2 = system: KM-20L2
RXF 631 = system: RXF 631
DLD-1 = system: DLD-1
DMS-273 = system: DMS-273
HOP-18 = system: HOP-18
DMS-114 = system: DMS-114
LXFL 529 = system: LXFL 529
XF498 = system: XF498
M19-MEL = system: M19-MEL

Row | Structure (SMILES) | GI50 (KM-20L2) | GI50 (RXF 631) | GI50 (DLD-1) | GI50 (DMS-273) | GI50 (HOP-18) | GI50 (DMS-114) | GI50 (LXFL 529) | GI50 (XF498) | GI50 (M19-MEL)
1 | Cc1ccc2c(c1)-c1c3c(nn1-c1ccccc1)-c1ccccc1SC3O2 (stereo not given) | > 100 µM (inactive) | 2.65 µM (inactive) | > 100 µM (inactive) | > 100 µM (inactive) | > 100 µM (inactive) | > 100 µM (inactive) | > 100 µM (inactive) | > 100 µM (inactive) | –
2 | COc1ccc(S(=O)(=O)N[C@H](C(=O)O)c2ccccc2)cc1 | > 100 µM (inactive) | – | > 100 µM (inactive) | > 100 µM (inactive) | > 100 µM (inactive) | > 100 µM (inactive) | > 100 µM (inactive) | > 100 µM (inactive) | > 100 µM (inactive)
3 | C/C(=N\NS(=O)(=O)c1ccc(C)cc1)c1c(O)cc(C)oc1=O | > 100 µM (inactive) | – | > 100 µM (inactive) | – | > 100 µM (inactive) | – | > 100 µM (inactive) | – | > 100 µM (inactive)
4 | CCN(CC)CC(O)CNc1ccc(NCC(O)CCl)c2c1C(=O)c1ccccc1C2=O (stereo not given) | 4.68 µM (inactive) | – | 8.83 µM (inactive) | 3.33 µM (inactive) | > 10 µM (inactive) | – | 1.85 µM (inactive) | 13.4 µM (inactive) | 6.82 µM (inactive)
5 | CCNCCCCNCCCCNCCCCNCCCCNCC | > 100 µM (inactive) | – | > 100 µM (inactive) | > 49.7 µM (inactive) | > 100 µM (inactive) | > 100 µM (inactive) | > 94.8 µM (inactive) | > 32.8 µM (inactive) | > 100 µM (inactive)
6 | COC1(OC)C2(Cl)C(Cl)=C(Cl)C1(Cl)C1c3ccc(C(C)=O)c4cccc(c34)C12 (stereo not given) | 4.53 µM (inactive) | – | – | 3.89 µM (inactive) | > 100 µM (inactive) | 15.9 µM (inactive) | 25.6 µM (inactive) | – | 25.6 µM (inactive)
7 | N#CCN1C(=O)c2cccc3cc([N+](=O)[O-])cc(c23)C1=O | 45.2 µM (inactive) | – | 32 µM (inactive) | 30.7 µM (inactive) | > 100 µM (inactive) | 38.7 µM (inactive) | 40.1 µM (inactive) | 25.8 µM (inactive) | 19.8 µM (inactive)
8 | Cc1cc(C)c(-c2noc(-c3ccc(Cl)cc3)c2C2=NCCN2)c(C)c1 | 22.2 µM (inactive) | 43.3 µM (inactive) | 22.4 µM (inactive) | – | 1.17 µM (inactive) | – | 19.9 µM (inactive) | 21.4 µM (inactive) | 35.8 µM (inactive)
9 | CCOC(=O)C(=O)Nc1ccc(C)cc1C | – | – | > 100 µM (inactive) | – | > 100 µM (inactive) | > 100 µM (inactive) | > 100 µM (inactive) | – | > 100 µM (inactive)
10 | S=c1[nH]nc(Cc2ccccc2)c(=S)[nH]1 | – | > 100 µM (inactive) | 94.8 µM (inactive) | > 100 µM (inactive) | 25.4 µM (inactive) | – | > 100 µM (inactive) | > 100 µM (inactive) | > 100 µM (inactive)
11 | C#CCNC(=O)NCCCCC(NC(C)=O)C(=O)NCc1ccccc1 (stereo not given) | > 100 µM (inactive) | > 100 µM (inactive) | > 100 µM (inactive) | – | > 100 µM (inactive) | > 100 µM (inactive) | > 100 µM (inactive) | 0.101 µM (active) | > 100 µM (inactive)
12 | CCC/C(=N\NC(=S)N1CC2CCC(CC2)C1)c1ccccn1 | 0.0145 µM (active) | – | 0.0118 µM (active) | 0.00839 µM (active) | 0.149 µM (active) | – | 0.0113 µM (active) | 0.00543 µM (active) | –
13 | CC(C)c1cc2c(O)c(c1)Cc1cc(C(C)C)cc(c1O)Cc1cc(C(C)C)cc(c1O)Cc1cc(C(C)C)cc(c1O)Cc1cc(C(C)C)cc(c1O)Cc1cc(C(C)C)cc(c1O)C2 | > 100 µM (inactive) | – | > 100 µM (inactive) | > 100 µM (inactive) | – | > 100 µM (inactive) | > 100 µM (inactive) | > 100 µM (inactive) | > 100 µM (inactive)
14 | N#Cc1cc([N+](=O)[O-])ccc1NC(=O)C(=O)C(C(=O)c1ccc2ccccc2c1)C1OCc2ccccc21 (stereo not given) | 20.7 µM (inactive) | 11.3 µM (inactive) | 11.1 µM (inactive) | – | – | 8.07 µM (inactive) | 4.41 µM (inactive) | – | 11.8 µM (inactive)
15 | CN1CCC(SC2Cc3cc(Cl)ccc3Sc3ccccc32)CC1 (stereo not given) | 5.27 µM (inactive) | 13.3 µM (inactive) | 14 µM (inactive) | 12.5 µM (inactive) | 13.5 µM (inactive) | – | 13.1 µM (inactive) | 16 µM (inactive) | 12.7 µM (inactive)
16 | CC1OC(OP(=O)(OCc2ccccc2)OCc2ccccc2)C(OC(=O)c2ccccc2)C(OC(=O)c2ccccc2)C1I (stereo not given) | 51.2 µM (inactive) | – | 50 µM (inactive) | 53 µM (inactive) | – | – | 41.8 µM (inactive) | > 100 µM (inactive) | 61.5 µM (inactive)
17 | O=C(/C=C/c1ccccc1F)c1ccc([N+](=O)[O-])cc1 | 30.8 µM (inactive) | – | 16.6 µM (inactive) | 36.3 µM (inactive) | 57.5 µM (inactive) | 17.1 µM (inactive) | 16.6 µM (inactive) | 19.6 µM (inactive) | 22.2 µM (inactive)
18 | N=S(c1ccccc1)c1ccccc1[N+](=O)[O-] (stereo not given) | 21 µM (inactive) | – | 18.6 µM (inactive) | 18.4 µM (inactive) | 32.6 µM (inactive) | 18.2 µM (inactive) | 16.6 µM (inactive) | 3.16 µM (inactive) | 12.3 µM (inactive)
19 | Cc1ccc(S(=O)(=O)NCCCN(CCCNS(=O)(=O)c2ccc(C)cc2)S(=O)(=O)c2ccc(C)cc2)cc1 | > 100 µM (inactive) | – | > 100 µM (inactive) | > 100 µM (inactive) | – | > 100 µM (inactive) | > 100 µM (inactive) | – | > 100 µM (inactive)
20 | COc1ccc(NC(=O)C/C(C)=N\N=C(N)N)c([N+](=O)[O-])c1 | > 100 µM (inactive) | – | 34.5 µM (inactive) | > 100 µM (inactive) | > 100 µM (inactive) | > 100 µM (inactive) | > 100 µM (inactive) | > 100 µM (inactive) | > 100 µM (inactive)
21 | Cc1nc(N)c(-c2ccccc2)s1 | > 70.8 µM (inactive) | > 100 µM (inactive) | > 82.6 µM (inactive) | 39.9 µM (inactive) | > 100 µM (inactive) | > 76 µM (inactive) | > 100 µM (inactive) | 34.6 µM (inactive) | > 100 µM (inactive)
22 | CCCN(CCC)C(=O)C(=O)c1c(N)[nH]n(-c2ccccc2)c1=O | > 100 µM (inactive) | > 100 µM (inactive) | 78.3 µM (inactive) | > 100 µM (inactive) | > 100 µM (inactive) | > 100 µM (inactive) | 66.2 µM (inactive) | > 100 µM (inactive) | > 100 µM (inactive)
23 | CN/N=C(/c1nc2ccc([N+](=O)[O-])cc2nc1O)C(O)c1ccc(C(O)/C(=N\NC)c2nc3ccc([N+](=O)[O-])cc3nc2O)cc1 (stereo not given) | 63 µM (inactive) | 21.3 µM (inactive) | 35.6 µM (inactive) | 31.4 µM (inactive) | – | 7.16 µM (inactive) | 20.7 µM (inactive) | – | > 100 µM (inactive)
24 | COC(=O)C(=O)CC(=O)CCn1[nH]c(=O)c(Cl)c(Cl)c1=O | > 100 µM (inactive) | – | > 100 µM (inactive) | > 100 µM (inactive) | – | > 100 µM (inactive) | > 100 µM (inactive) | > 100 µM (inactive) | > 100 µM (inactive)
25 | c1ccc2c(c1)SC(=C1Sc3ccccc3S1)S2 | > 100 µM (inactive) | > 100 µM (inactive) | > 100 µM (inactive) | > 100 µM (inactive) | > 100 µM (inactive) | 69.8 µM (inactive) | > 100 µM (inactive) | > 100 µM (inactive) | > 100 µM (inactive)
26 | CN(C)/C=N/c1nc2c(ncn2C2OC(CO)C(O)C2O)c(=O)[nH]1 (stereo not given) | > 100 µM (inactive) | > 100 µM (inactive) | > 100 µM (inactive) | > 100 µM (inactive) | > 100 µM (inactive) | > 100 µM (inactive) | > 100 µM (inactive) | > 100 µM (inactive) | > 100 µM (inactive)
27 | CCCCCCN(CCCCCC)C(=O)Cc1c2n(c3ccccc13)Cc1ccccc1-2 | > 100 µM (inactive) | – | 33.7 µM (inactive) | 36.9 µM (inactive) | > 100 µM (inactive) | 28.6 µM (inactive) | 37.4 µM (inactive) | – | 60.3 µM (inactive)
28 | CC[C@H]1CN2CCc3cc(OC)c(OC)cc3[C@@H]2C[C@@H]1C[C@H]1NCCc2c1[nH]c1ccc(O)cc21 [TUBULOSINE] | 0.0153 µM (active) | – | 0.0279 µM (active) | < 0.01 µM (active) | 0.0454 µM (active) | < 0.01 µM (active) | 0.0202 µM (active) | 0.0188 µM (active) | < 0.01 µM (active)

Reference: ChEMBL document CHEMBL1201862, “PubChem BioAssay data set” (2004)
